According to patent US7612079B2, “2,6,9-substituted purine derivatives and their use in the treatment of proliferative disorders” (Cyclacel Limited, priority 2001, dated 2009):
Several values for one entry are separate records, joined by “and”; a condition that tells them apart may be missing. Identical values can stand only once.

What was measured:
mouse ERK-2 = target: T1, mouse ERK-2 (Mus musculus, UniProt P63085); test: ERK-2 kinase assay (MBP phosphorylation); format: biochemical; details: Table 2; read-out: Kinase inhibition ERK2 IC50
T1 construct: purchased Upstate Biotechnologies
T1 sequence (P63085 whole entry): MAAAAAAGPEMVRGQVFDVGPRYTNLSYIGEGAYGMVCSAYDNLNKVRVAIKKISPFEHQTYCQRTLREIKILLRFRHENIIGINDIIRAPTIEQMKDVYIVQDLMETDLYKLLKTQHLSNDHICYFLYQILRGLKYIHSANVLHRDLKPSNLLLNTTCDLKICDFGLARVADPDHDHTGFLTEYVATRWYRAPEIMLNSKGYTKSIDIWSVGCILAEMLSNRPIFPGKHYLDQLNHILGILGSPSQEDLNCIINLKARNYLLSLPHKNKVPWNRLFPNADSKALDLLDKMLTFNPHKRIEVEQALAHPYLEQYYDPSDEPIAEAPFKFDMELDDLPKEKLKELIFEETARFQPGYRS
Method: ERK-2 kinase activity was measured by the incorporation of radioactive phosphate into myelin basic protein (MBP), catalysed by purified mouse ERK-2 (Upstate Biotechnologies). The reaction mixture (total volume 50 μL) consisted of 20 mM MOPS, pH 7.0,25 mM β-glycerophosphate, 5 mM EGTA, 1 mM DTT, 1 mM Na3VO4, 10 mM MgCl2, 100 μM ATP, 0.2 μCi [γ-^32P]-ATP.

CDK4/cyclin D1 = CDK4/cyclin D1 (Homo sapiens, UniProt P11802); test: CDK4/cyclin D1 kinase assay (GST-Rb phosphorylation); format: biochemical; details: Table 2; read-out: Kinase inhibition CDK4/cyclin D1 IC50
CDK4/cyclin D1, sequence (P11802 whole entry, species assumed): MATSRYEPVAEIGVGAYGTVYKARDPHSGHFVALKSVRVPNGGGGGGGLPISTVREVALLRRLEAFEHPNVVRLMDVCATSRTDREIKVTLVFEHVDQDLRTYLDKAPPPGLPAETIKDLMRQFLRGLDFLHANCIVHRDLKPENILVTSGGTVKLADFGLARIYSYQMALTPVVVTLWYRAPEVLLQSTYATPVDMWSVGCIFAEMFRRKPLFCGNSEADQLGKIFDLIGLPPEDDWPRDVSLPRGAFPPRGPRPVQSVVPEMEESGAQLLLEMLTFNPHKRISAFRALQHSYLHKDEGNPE
CDK4/cyclin D1, sequence (P24385 whole entry partner, species assumed): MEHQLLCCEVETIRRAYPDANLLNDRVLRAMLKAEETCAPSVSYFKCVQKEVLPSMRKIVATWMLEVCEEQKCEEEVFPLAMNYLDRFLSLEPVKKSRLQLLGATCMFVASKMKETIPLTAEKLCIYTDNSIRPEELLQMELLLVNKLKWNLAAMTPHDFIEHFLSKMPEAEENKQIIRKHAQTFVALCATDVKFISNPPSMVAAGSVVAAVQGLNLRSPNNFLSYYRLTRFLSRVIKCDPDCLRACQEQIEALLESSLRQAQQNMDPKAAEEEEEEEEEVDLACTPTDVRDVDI
Method: (§1) Assays for CDK2/cyclin E kinase, CDK1/cyclin B and CDK4/cyclin D1 may be carried out by monitoring phosphorylation of GST-Rb in an appropriate system. […] The phosphorylation reaction mixture (total volume 40 μl) consisted of 50 mM HEPES pH 7.4, 20 mM MgCl2, 5 mM EGTA, 2 mM DTT, 20 mM β-glycerophosphate, 2 mM NaF, 1 mM Na3VO4, Protease Inhibitors Cocktail (Sigma, see above), BSA 0.5 mg/ml, 1 μg purified enzyme complex, 10 μl of GST-Rb-Sepharose-beads, 100 μM ATP, 0.2 μCi ^32P-ATP. The reaction is carried out for 30 min at 30° C. at constant shaking. At the end of this period 100 μl of 50 mM HEPES, pH 7.4 and 1 mM ATP is added to each well and the total volume transferred onto GFC filtered plate. The plate is washed 5 times with 200 μl of 50 mM HEPES, pH 7.4 and 1 mM ATP. To each well was added 50 μl scintillant liquid and the radioactivity of the samples is measured on Scintilation counter (Topcount, HP). The IC50 values of different peptides were calculated using GraFit software.

A549, HT29, Saos-2 = test: In vitro anti-proliferative activity, 72-h MTT, A549, HT29, Saos-2; format: cell-based; details: read-out: In vitro anti-proliferative activity (72-h MTT IC50), Cell lines: A549, HT29, Saos-2
[1] = target: T2, cyclic AMP-dependent kinase (PKA) catalytic subunit (Homo sapiens, UniProt P17612); test: PKA kinase assay (Kemptide phosphorylation); format: biochemical; details: Table 2; read-out: Kinase inhibition PKA IC50
T2 construct: purchased Calbiochem 539487
Method: The reaction mixture (total volume 50 μl) consisted of 20 mM MOPS, pH 7.2, 25 mM β-glycerophosphate, 5 mM EGTA, 1 mM DTT, 1 mM Na3VO4, 10 mM MgCl2, 100 μM ATP, 0.2 μCi [γ-^32P]-ATP.

CDK7/cyclin H = CDK7/cyclin H (Homo sapiens, UniProt P50613); test: CDK7/cyclin H kinase inhibition; format: biochemical; details: Table 2
CDK7/cyclin H, sequence (P50613 whole entry, species assumed): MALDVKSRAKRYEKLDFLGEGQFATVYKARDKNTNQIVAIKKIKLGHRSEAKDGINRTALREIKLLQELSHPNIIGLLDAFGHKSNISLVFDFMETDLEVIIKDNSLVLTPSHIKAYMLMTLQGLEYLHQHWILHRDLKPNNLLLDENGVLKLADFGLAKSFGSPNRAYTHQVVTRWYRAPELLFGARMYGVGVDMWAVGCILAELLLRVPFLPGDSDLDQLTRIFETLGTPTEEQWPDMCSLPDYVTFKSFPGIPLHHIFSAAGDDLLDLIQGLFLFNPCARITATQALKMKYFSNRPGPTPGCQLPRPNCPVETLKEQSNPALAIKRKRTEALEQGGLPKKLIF
CDK7/cyclin H, sequence (P51946 whole entry partner, species assumed): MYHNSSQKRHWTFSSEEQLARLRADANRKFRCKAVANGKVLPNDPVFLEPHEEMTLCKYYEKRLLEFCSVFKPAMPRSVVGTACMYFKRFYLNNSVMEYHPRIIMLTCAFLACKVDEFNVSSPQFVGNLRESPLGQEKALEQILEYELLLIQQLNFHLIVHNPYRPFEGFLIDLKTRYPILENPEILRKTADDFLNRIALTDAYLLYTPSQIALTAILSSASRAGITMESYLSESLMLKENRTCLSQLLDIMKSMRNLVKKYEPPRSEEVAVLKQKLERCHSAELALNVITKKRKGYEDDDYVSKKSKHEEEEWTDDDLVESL

CH1 = test: 72-h MTT proliferation assay, CH1; format: cell-based; details: Homo sapiens, read-out: IC50 Cell line CH1
From the text: (§2) Selected compounds from the above examples were subjected to a standard cellular proliferation assay using seven different human tumour cell lines: A2780, A278CisF, CH1, CH1DoxR, HCT116, HT29 and KM12. […] Human tumour cell lines were obtained from the ATCC (American Type Culture Collection, 10801 University Boulevard, Manessas, Va. 20110-2209, USA). The results are shown in Table 1, together with the average IC50 over the seven different cell lines.

HT29 = test: 72-h MTT proliferation assay, HT29; format: cell-based; details: Homo sapiens, HT-29, read-out: IC50 Cell line HT29
From the text: as §2

A2780 CisR = test: 72-h MTT proliferation assay, A2780 CisR; format: cell-based; details: Homo sapiens, A2780cisR, read-out: IC50 Cell line A2780 CisR
From the text: as §2

A2780 = test: 72-h MTT proliferation assay, A2780; format: cell-based; details: Homo sapiens, read-out: IC50 Cell line A2780
From the text: as §2

CDK2/cyclin E = target: T3, CDK2/cyclin E (Homo sapiens, UniProt P24941); test: CDK2/cyclin E kinase assay (GST-Rb phosphorylation); format: biochemical; details: Table 1
T3 construct: His; made in house; host or cells: Sf9 insect cells (baculovirus)
Method: as §1
For use in said assay CDK2 may be obtained from available sources or produced by recombinant methods as described His-tagged CDK2/Cyclin E and CDK1/Cyclin B may be co-expressed in Sf 9 insect cells infected with the appropriate baculovirus constructs. The cells are harvested two days after infection by low speed centrifugation and the proteins purified from the insect cell pellets by Metal-chelate chromatography. Briefly, the insect cell pellet is lysed in Buffer A (10 mM Tris-HCl, pH 8.0, 150 mM NaCl, 0.02% NP40 and 5 mM, β-marcaptoethanol, 1 mM NaF. 1 mM Na3VO4 and Protease Inhibitors Coctail (Sigma) containing AEBSF, pepstatin A, E 64, bestatin, leupeptin) by sonication. The soluble fraction is cleared by centrifugation and loaded onto Ni-NTA-Agarose (Quiagen). Non bound proteins were washed off with 300 mM NaCl, 5-15 mM Imidazole in Buffer A and the bound proteins eluted with 250 mM Imidazole in Buffer A. The purified proteins are extensively dialyzed against Storage buffer (20 mM HEPES pH 7.4, 50 mM NaCl, 2 mM DTT, 1 mM EDTA, 1 mM EGTA, 0.02% NP40, 10% v/v Glycerol) aliquoted and stored at −70° C. PKC-α—6×His may be purified the same way but using different buffers—50 mM NaH2PO4, pH 8.0 and 0.05% Triton X-100 instead of Tris and NP40 respectively.

CH1DoxR = test: 72-h MTT proliferation assay, CH1DoxR; format: cell-based; details: Homo sapiens, read-out: IC50 Cell line CH1DoxR
From the text: as §2

KM12 = test: 72-h MTT proliferation assay, KM12; format: cell-based; details: Homo sapiens, read-out: IC50 Cell line KM12
From the text: as §2

[2] = system: seven different human tumour cell lines: A2780, A278CisF, CH1, CH1DoxR, HCT116, HT29 and KM12; test: 72-h MTT proliferation assay, average over seven cell lines; format: cell-based; details: read-out: IC50 Cell line Average
From the text: Selected compounds from the above examples were subjected to a standard cellular proliferation assay using seven different human tumour cell lines: A2780, A278CisF, CH1, CH1DoxR, HCT116, HT29 and KM12.

HCT116 = test: 72-h MTT proliferation assay, HCT116; format: cell-based; details: Homo sapiens, HCT-116, read-out: IC50 Cell line HCT116
From the text: as §2

in vivo = details: mouse
[3] = Metabolic carbinol-carboxyl oxidation; details: remark in Table 1

Row | Compound | IC50 (mouse ERK-2) | IC50 (CDK4/cyclin D1) | IC50 (A549, HT29, Saos-2) | IC50 [1] | IC50 (CDK7/cyclin H) | IC50 (HT29) | IC50 (A2780 CisR) | IC50 (A2780) | IC50 (CDK2/cyclin E) | IC50 [2] | IC50 (HCT116) | AUC(0-inf) (in vivo) | half-life (in vivo) | PK remark: carbinol metabolism [3] | IC50 (CH1) | IC50 (CH1DoxR) | IC50 (KM12)
1 | CC[C@H](CO)Nc1nc(Nc2cccc([N+](=O)[O-])c2)c2ncn(C(C)C)c2n1 [Example 4, (R)-2-[9-Isopropyl-6-(3-nitro-phenlamino)-9H-purin-2-ylamino]-butan-1-ol] |  |  |  |  |  | 2.1 µM | 1.7 µM | 0.245 µM | 0.028 ± 0.01 µM | 1.1 µM | 1.2 µM |  |  |  | 1.1 µM | 0.56 µM | 0.76 µM
2 | CC[C@H](Nc1nc(NCc2ccccc2)c2ncn(C(C)C)c2n1)C(C)(C)O [Example 16, (S)-3-(6-Benzylamino-9-isopropyl-9H-purin-2-ylamino)-2 methyl-pentan-2-ol] |  | 8.5 µM | 10 µM | ≥ 200 µM | 2 µM |  |  |  |  |  |  |  |  |  |  |  | 
3 | COc1ccc(CNc2nc(N3CCCC(O)C3)nc3c2ncn3C2CCCC2)cc1OC (stereo not drawn) [Example 2, 1-[9-Cyclopentyl-6-(3.4-dimethoxy-benzylamino)-9H-purin-2-yl]piperidin-3-ol] |  |  |  |  |  | 4.4 µM | 14 µM | 0.078 µM | 1.84 ± 0.31 µM | 4.9 µM | 6.1 µM | 19500 ng·h/mL | 4.2 h |  | 0.94 µM | 2.4 µM | 6.4 µM
4 | OC1CCCN(c2nc(Nc3ccc4c(c3)CCC4)c3ncn(C4CCCC4)c3n2)C1 (stereo not drawn) [Example 1, 1-[9-Cyclopentyl-6-(indan-5-ylamino)-9H-purin-2-yl]-piperidin-3-ol] |  |  |  |  |  | 1.8 µM | 1.1 µM | 2.2 µM | 0.58 ± 0.33 µM | 2 µM | 5.7 µM | 62500 ng·h/mL | 5.5 h |  | 1.5 µM | 1.7 µM | 0.34 µM
5 | CC(C)[C@H](CO)Nc1nc(Nc2cccc([N+](=O)[O-])c2)c2ncn(C(C)C)c2n1 [Example 3, (R)-2-[9-Isopropyl-6-(3-nitro-phenylamino)-9H-purin-2-ylamino]-3-methyl-butan-1-ol] |  |  |  |  |  | 4.3 µM | 2.85 µM | 1.1 µM | 0.33 ± 0.45 µM | 2.3 µM | 2.45 µM |  |  |  | 2.3 µM | 1.8 µM | 1.05 µM
6 | CC[C@@H](Nc1nc(NCc2ccccc2)c2ncn(C(C)C)c2n1)C(C)(C)O [Example 15] |  | 12 µM | 15 µM | 191 µM | 3.7 µM |  |  |  |  |  |  |  |  |  |  |  | 
7 | CC[C@@H](Nc1nc(NCc2ccccc2)c2ncn(C(C)C)c2n1)C(O)C(C)(C)C (mixture of isomers) [Example 13, (3RS,4R)-4-(6-Benzylamino-9-isopropyl-9H-purin-2-ylamino)-2,2-dimethyl-hexan-3-ol] | > 200 µM | > 200 µM | 18 µM | 87 µM | 3.7 µM |  |  |  |  |  |  |  |  |  |  |  | 
8 | CC[C@H](Nc1nc(NCc2ccccc2)c2ncn(C(C)C)c2n1)C(O)C(C)(C)C (mixture of isomers) [Example 14, (3RS,4S)-4-(6-Benzylamino-9-isopropyl-9H-purin-2-ylamino)-2,2-dimethyl-hexan-3-ol] | > 200 µM | 60 µM | 22 µM | > 200 µM | 4.3 µM |  |  |  |  |  |  |  |  |  |  |  | 

Now from value to molecule, other results behind:

Row | IC50 (mouse ERK-2) | IC50 (CDK4/cyclin D1) | IC50 (A549, HT29, Saos-2) | IC50 [1] | IC50 (CDK7/cyclin H) | IC50 (HT29) | IC50 (A2780 CisR) | IC50 (A2780) | IC50 (CDK2/cyclin E) | IC50 [2] | IC50 (HCT116) | AUC(0-inf) (in vivo) | half-life (in vivo) | PK remark: carbinol metabolism [3] | Compound | IC50 (CH1) | IC50 (CH1DoxR) | IC50 (KM12)
9 | > 200 µM | 28 µM | 11 µM | 92 µM | 4.4 µM |  |  |  |  |  |  |  |  |  | CC[C@@H](Nc1nc(NCc2ccccc2)c2ncn(C(C)C)c2n1)C(O)C(C)C (mixture of isomers) [Example 11, (3RS,4R)-4-(6-Benzylamino-9-isopropyl-9H-purin-2-ylamino)-2-methyl-hexan-3-ol] |  |  | 
10 | 88 µM |  |  | 83 µM |  |  |  |  |  |  |  |  |  |  | CC[C@H](Nc1nc(NCc2ccccc2)c2ncn(C(C)C)c2n1)C(O)C(C)C (stereo partly drawn) [Example 12] |  |  | 
11 |  |  | 20 µM | > 200 µM |  |  |  |  |  |  |  |  |  |  | CCC(O)[C@H](CC)Nc1nc(NCc2ccccc2)c2ncn(C(C)C)c2n1 (stereo partly drawn) [Example 10] |  |  | 
12 |  |  |  |  |  |  | 3.8 µM | 6.4 µM |  | 6.9 µM | 5.4 µM |  |  | Blocked carbinol metabolism | CC[C@@H](Nc1nc(NCc2ccccc2)c2ncn(C(C)C)c2n1)[C@H](C)O [Example 7 (2S,3R), (2S, 3R)-3-(6-Benzylamino-9-isopropyl-9H-purin-2-ylamino)-pentan-2-ol] | 5 µM | 4.6 µM | 5.4 µM
13 | > 50 µM and 43 µM and 29 µM |  |  | > 50 µM |  |  |  |  |  |  |  |  |  |  | CCC(Nc1nc(NCc2ccccc2)c2ncn(C(C)C)c2n1)C(C)O (stereo not drawn) [Example 7] |  |  | 
14 | 103 µM | 34 µM | 11 µM | 139 µM | 1.2 µM |  |  |  |  |  |  |  |  |  | CCC(O)[C@@H](CC)Nc1nc(NCc2ccccc2)c2ncn(C(C)C)c2n1 (mixture of isomers) [Example 9, (3RS,4R)-4-(6-Benzylamino-9-isopropyl-9H-purin-2-ylamino)-hexan-3-ol] |  |  | 
15 |  |  |  |  |  | 5 µM | 3.4 µM | 3.3 µM |  |  | 1.5 µM |  |  | Blocked carbinol metabolism | CC[C@H](Nc1nc(NCc2ccccc2)c2ncn(C(C)C)c2n1)[C@@H](C)O [Example 7 (2R,3S), (2R,3S)-3-(6-Benylamino-9-isopropyl-9H-purin-2-ylamino)-pentan-2-ol] | 1.8 µM | 1.3 µM | 1.9 µM
16 |  |  |  |  |  | 15 µM | 15 µM | 6.6 µM |  | 13.8 µM | 12 µM |  |  | Blocked carbinol metabolism | CC[C@@H](Nc1nc(NCc2ccccc2)c2ncn(C(C)C)c2n1)C(C)O (mixture of isomers) [7 (2RS,3R), (2RS, 3R)-3-(6-Benzylamino-9-isopropyl-9H-purin-2-ylamino)-pentan-2-ol] | 17 µM | 12 µM | 19 µM
